From patent US12194026B2, “Drug for treating tinnitus” (UNIVERSITY OF SOUTH FLORIDA, priority 2018, dated 2025)
“Also recorded” adds a separate entry of the source.

Legend:
[1] = tested on: IC of awake CBA/CaJ mice; test: Multi-channel neurophysiological recordings in the inferior colliculus (IC, auditory midbrain); assay type: in vivo, mouse
Description: IC neurophysiological recordings. Surgery and extracellular recordings were collected and analyzed by a method identical to a procedure used in a previous study. The right IC was located stereotaxically and exposed via a small (<1.0 mm) craniotomy. Prior to recording, chlorprothixene (Taractin®, 5-12 μl/g i.m.) was administered to prevent involuntary movement via inhibition of parasympathetic nerve impulses. The animal was then secured in a custom stereotaxic frame (Newport-Klinger) in a heated (34° C.) chamber lined with sound-absorbing foam (Sonex®). Multi-unit extracellular activity was recorded using vertically oriented single shank silicon acute penetrating 16-channel electrodes with an impedance ranging from 1.2 to 2.1 MΩ (Type-A, 3 mm×100 μm; NeuroNexus Technologies). Excitatory frequency response areas (eFRAs) from all active channels were acquired simultaneously using 2 to 64 kHz, 25 ms (5 ms rise/fall) tone burst stimuli presented at 0 to 80 dB SPL in 5 dB steps. A total of 2125 frequency and intensity combinations were presented pseudo-randomly five times each at a rate of 10/s. The change in the driven response due to treatment was assessed via maximum number of spikes per stimulus within the boundary of each eFRA.

[2] = tested on: animals; settings: cited from earlier work
[3] = tested on: young adult CBA/CaJ mice; test: Gap pre-pulse inhibition of the acoustic startle (GPIAS), Gap-PPI, SS-induced tinnitus
Description: (§1) SS can be administrated 2 hours before measuring the behavioral manifestations of tinnitus.
(§2) Behavioral assay: The presence of tinnitus may be indicated by a failure to respond to silence embedded in sound stimuli near the tinnitus frequency. A sound pulse-evoked acoustic startle reflex (ASR) is commonly used to determine if an animal can detect silent gaps in narrow-band noise and this method appears to detect tinnitus in humans. Failure of a first sound pulse to suppress a second sound pulse-evoked startle reflex is indicative of tinnitus. This ASR assay has a similar sensitivity for changes in gap detection to a behavioral conditioning paradigm in which animals are trained to response to gaps in noise. Elevations in the ASR amplitude have been linked to the presence of hyperacusis, a disorder often comorbid with tinnitus. Thus, the assay probed possible influences of BK channel function on both tinnitus and hyperacusis.
(§3) General Procedure. Mice underwent sequential assessment of the effect of treatment (baseline; sodium salicylate; sodium salicylate with BMS-191011). Baseline measures were acquired before sodium salicylate (SS) administration so that mice served as their own controls. Tinnitus was induced transiently by intraperitoneal (i.p.) injection of 250 mg/kg SS (concentration: 25 mg/mL 0.9% saline). SS induces tinnitus in humans, and SS-treated animals share markers of tinnitus with humans. Behavioral or neurophysiological manifestations of tinnitus were assessed 2 hours following SS injection, and were completed within 3.5 hours. Jastreboff et al. reported that after an i.p. injection of SS in rats, the maximum levels in blood serum occurred 1.5 hours later, while the maximum levels in the perilymph and spinal fluid reached maximum levels within 2-4 hours. However, behavioral manifestations of tinnitus are observed up to 48 hours following administration (cite). […]
Modification of the ASR by stimuli placed before the SES is typically observed as a reduction in startle amplitude or pre-pulse inhibition (Hoffman and Ison, 1980; Ison and Hoffman, 1983). To probe the tinnitus percept (Longenecker and Galazyuk, 2012; Turner, 2007), Turner and colleagues used a relatively long silent gap imbedded in an ongoing narrow band noise (NBN) placed before the SES; various center frequencies of the NBN were used. The paradigm as a whole is referred to as the gap pre-pulse inhibition of the acoustic startle (GPIAS). The silent gap is demonstrably perceived; but, if the tinnitus pitch is in the region of the pitch of the ongoing NBN, the animal will presumably be impaired at detecting the gap (Turner, et al 2007). The presence of tinnitus is then indicated by a reduction in pre-pulse inhibition to the gap stimulus, or Gap-PPI, when the gap carrier pitch is near the tinnitus frequency (Turner, 2007). To perform the GPIAS assay, in this study the SES (presented at 100 dB SPL) was preceded by a 150-ms, 70-dB narrow band noise (⅓ octave) centered at 6, 12, 16, 20, or 24 kHz. During gap trials, a 50-ms silent gap was inserted 100 ms before the SES. Ten trials of each stimulus were presented to obtain the Gap PPI function.

[4] = molecular target: BK channel (Homo sapiens, UniProt Q12791); settings: relative to Maxipost; cited from earlier work
[5] = in vivo; cited from earlier work
[6] = tested on: young adult CBA/CaJ mice; test: Acoustic startle reflex (ASR) amplitude, startle input-output function, salicylate (SS) tinnitus model
Description: as §1, §2, §3
Behavioral Assays. Behavioral assessment were performed as described previously (Longenecker and Galazyuk, 2011; Lowe and Walton, 2015), and as briefly outlined below. The animals were acclimated to the testing room by placing the home cage in the testing room 30 min prior to testing. The acoustic startle response (ASR), a transient motor response to a startle eliciting stimulus (SES), was converted to voltage by placing mice on a custom-built platform connected to piezoelectric transducers located inside a sound attenuated chamber. SESs were 20-ms Gaussian broadband noise bursts (1-ms rise/fall time), filtered at 500 Hz-40 kHz. To measure threshold and amplitude of the ASR, the intensity of the SES was varied between 55-115 dB SPL. Ten trials were run for each stimulus in order to acquire the startle input-output function.

[7] = tested on: CBA/CaJ mice; test: Auditory brainstem response (ABR) recordings before and after SS
Description: General Procedure. Mice underwent sequential assessment of the effect of treatment (baseline; sodium salicylate; sodium salicylate with BMS-191011). Baseline measures were acquired before sodium salicylate (SS) administration so that mice served as their own controls. Tinnitus was induced transiently by intraperitoneal (i.p.) injection of 250 mg/kg SS (concentration: 25 mg/mL 0.9% saline). SS induces tinnitus in humans, and SS-treated animals share markers of tinnitus with humans. Behavioral or neurophysiological manifestations of tinnitus were assessed 2 hours following SS injection, and were completed within 3.5 hours. Jastreboff et al. reported that after an i.p. injection of SS in rats, the maximum levels in blood serum occurred 1.5 hours later, while the maximum levels in the perilymph and spinal fluid reached maximum levels within 2-4 hours. However, behavioral manifestations of tinnitus are observed up to 48 hours following administration (cite). BMS-191011 (Sigma Aldrich) was administered i.p. (0.5 mg/kg) or topically (1 μL of 1-10 μM) at the dura over the auditory midbrain.
ABR Assays. To obtain an electrophysiological measure of auditory evoked activity in the auditory nerve and brainstem, ABR assays were performed as described previously (Longenecker and Galazyuk, 2011; Lowe and Walton, 2015), and as briefly outlined below. Animals were anesthetized with i.p. administration of ketamine (120 mg/kg) and xylazine (10 mg/kg). Respiration was monitored during testing and used to guide administration of supplemental anesthesia. Body temperature was kept constant at 37° C. using a feedback-controlled heating pad (Physitemp TCAT2-LV Controller, Clifton, NJ).
ABRs were recorded using BioSig software in a soundproof booth lined with echo-attenuating acoustic foam. ABRs were evoked by 256 tone burst stimuli. Tone bursts were 3 msec in duration (1-ms rise/fall time, alternating polarity) presented at 6, 12, 16, 20, 24, and 36 kHz at a rate of 29 per second, attenuated in 5 dB steps from 80 dB SPL to 15 dB below threshold or 5 dB SPL, whichever was lower. Threshold was determined by visual inspection as the lowest intensity level which produced a defined peak in two replicates. Peaks 1-5 (P1-5) were detected and measured in the ABR waveforms using custom designed MATLAB software.

[8] = cited from earlier work
[9] = BMS-191011 after SS, 12, 16, 20, 24 kHz tones
[10] = BMS-191011 after SS, 60 dB tones
[11] = rats, after i.p. injection, Jastreboff et al.
[12] = SS 250 mg/kg i.p., 12-20 kHz stimuli

Sequence of BK channel (Q12791 whole entry, species assumed): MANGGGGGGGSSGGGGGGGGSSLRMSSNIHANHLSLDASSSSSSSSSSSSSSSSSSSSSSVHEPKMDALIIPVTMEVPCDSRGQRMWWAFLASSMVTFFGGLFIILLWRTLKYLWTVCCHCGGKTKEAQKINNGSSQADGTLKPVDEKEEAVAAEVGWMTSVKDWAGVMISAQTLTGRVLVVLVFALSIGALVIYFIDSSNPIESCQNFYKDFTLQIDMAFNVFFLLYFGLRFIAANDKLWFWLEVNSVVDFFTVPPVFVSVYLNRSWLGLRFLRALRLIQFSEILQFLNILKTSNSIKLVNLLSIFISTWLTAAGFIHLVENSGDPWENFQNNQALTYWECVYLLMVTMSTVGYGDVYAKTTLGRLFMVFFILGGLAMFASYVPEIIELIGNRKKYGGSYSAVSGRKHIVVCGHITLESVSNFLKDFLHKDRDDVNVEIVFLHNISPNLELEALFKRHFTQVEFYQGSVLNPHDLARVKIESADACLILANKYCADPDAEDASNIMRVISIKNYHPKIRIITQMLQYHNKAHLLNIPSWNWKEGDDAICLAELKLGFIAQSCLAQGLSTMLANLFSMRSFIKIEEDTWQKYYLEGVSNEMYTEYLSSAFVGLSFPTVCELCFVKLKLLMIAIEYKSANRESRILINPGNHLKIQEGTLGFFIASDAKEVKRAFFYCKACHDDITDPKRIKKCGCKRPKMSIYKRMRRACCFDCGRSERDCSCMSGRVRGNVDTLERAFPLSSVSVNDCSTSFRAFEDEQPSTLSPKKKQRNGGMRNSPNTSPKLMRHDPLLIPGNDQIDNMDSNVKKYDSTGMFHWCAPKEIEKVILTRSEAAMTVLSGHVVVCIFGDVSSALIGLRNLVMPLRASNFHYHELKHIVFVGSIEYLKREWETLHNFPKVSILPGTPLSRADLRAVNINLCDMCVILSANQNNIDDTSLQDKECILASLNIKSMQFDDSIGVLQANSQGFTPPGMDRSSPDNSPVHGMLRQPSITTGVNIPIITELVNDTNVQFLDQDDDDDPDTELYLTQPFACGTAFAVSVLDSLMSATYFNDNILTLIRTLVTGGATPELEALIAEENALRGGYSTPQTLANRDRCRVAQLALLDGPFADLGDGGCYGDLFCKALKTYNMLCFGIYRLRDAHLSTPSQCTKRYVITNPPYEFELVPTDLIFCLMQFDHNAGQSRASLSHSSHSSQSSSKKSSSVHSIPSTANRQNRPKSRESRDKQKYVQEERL

## O=c1oc(-c2ccc(C(F)(F)F)cc2)nn1Cc1cc(Cl)ccc1O [BMS-191011, 3-[(5-chloro-2-hydroxyphenyl)methyl]-5-[4-(trifluoromethyl)phenyl]-1,3,4-oxadiazol-2(3H)-one]
[1]; Example 1, control mice, local administration (topical application over the dura)
  sound-evoked activity in the IC: suppressed sound-evoked activity
[1]; mice not given SS, topical 1 μL of 1-10 μM
  spontaneous activity (spontaneous spikes per 25 ms): remained unchanged; also recorded: no significant change
[1]; mice not given SS, topical 1 μL of 1-10 μM, hours 2-4 after treatment
  reduction of sound-evoked activity (maximum number of spikes evoked by a tone): ~50%
[1]; mice not given SS, topical at the dura, 1 μL of a 1-10 μM solution
  time after administration by which suppression of sound-evoked activity (maximal spikes per 25 ms stimulus) is significant: ≤ 1 h
[2]; animals
  cardiac effects (heart rate, blood pressure): without signs of negative cardiac effects
[2]; in vivo
  tolerability in animals: well-tolerated
[3]; Example 1, 16 kHz region, after SS, BMS191011 i.p. 5 mg/kg
  Gap-PPI for stimuli within the tinnitus percept: returned Gap-PPI to baseline levels
[3]; Example 2, BMS-191011 after SS 250 mg/kg, N=6
  % Gap PPI, 12-20 kHz carriers: returned SS-suppressed Gap-PPIs to baseline levels
[3]; Example 2, BMS-191011 after SS, outside expected tinnitus range
  Gap-PPI, 24 kHz carrier: no effect on Gap-PPI
[3]; Example 2, without SS
  Gap-PPI functions, compound administered alone: not significantly altered from baseline
[4]
  affinity and specificity for the BK channel compared with Maxipost: higher affinity and specificity
[5]
  brain availability: high brain-availability
[6]; Example 1, mouse model, SS 2 hours before, BMS191011 i.p. 5 mg/kg
  ASR amplitude after SS treatment: did not appear to return this toward baseline
[6]; Example 2, BMS-191011 i.p. after SS 250 mg/kg, 1 hour before testing, N=6
  SS-induced increase in startle amplitude intensity-response function: did not reverse the effects of SS administration; also recorded: not significantly altered
[6]; Example 2, without SS
  startle amplitudes, compound administered alone: did not alter startle amplitudes
[7]; BMS-191011 after SS
  effect of SS on ABR P2 amplitudes: did not substantively alter; also recorded: did not significantly alter the effect of SS treatment
  effect of SS on ABR P4 amplitudes: did not substantively alter; also recorded: did not significantly alter the effect of SS treatment
[7]; BMS-191011 after SS, 1 hour before ABR recordings
  SS-induced ABR threshold shift: did not significantly alter; also recorded: not further altered
[7]; [9]
  SS-induced decrease in ABR P1 amplitudes: did not significantly alter the effect of SS treatment
  SS-induced shift in ABR P1 latencies: did not significantly alter; also recorded: minimally altered the effect of SS treatment
[7]; [10]
  SS-increased P2/P1 amplitude ratio: did not substantively alter; also recorded: unaltered
  SS-increased P4/P1 amplitude ratio: unaltered

## O=C([O-])c1ccccc1O.[Na+] [SS, sodium salicylate]
[3]; SS 250 mg/kg i.p. alone
  Gap-PPI relative to baseline, 12-20 kHz carrier: reduced Gap-PPI; also recorded: significant decrease in % Gap PPI
  Gap-PPI, 24 kHz carrier: did not influence Gap-PPI
[6]; SS 250 mg/kg i.p. alone
  startle amplitude intensity-response function relative to baseline: increased the intensity-response function; also recorded: significant increase in startle amplitude
[8]; following administration
  time for which behavioral manifestations of tinnitus are observed after administration: up to 48 hours
[8]; [11]
  time of maximum levels in blood serum: 1.5 h
  time of maximum levels in perilymph and spinal fluid: 2 to 4 h
[7]; SS 250 mg/kg i.p.
  ABR P1 amplitudes relative to baseline: significantly reduced P1 amplitudes
  ABR P1 latencies relative to baseline: longer P1 latencies; also recorded: significantly delayed P1 latencies
[7]; [12]
  P2/P1 amplitude ratio relative to baseline: substantially increased; also recorded: significantly increased the P2/P1 ratio
  P4/P1 amplitude ratio relative to baseline: still increased; also recorded: significantly increased the P4/P1 ratio
[7]; SS 250 mg/kg i.p., 12-20 kHz, higher intensities (60-80 dB SPL)
  ABR P2 amplitude relative to baseline: either increased or stayed the same; also recorded: increased P2 amplitude at 80 dB
[7]; SS 250 mg/kg i.p., across the frequency spectrum
  increase in ABR thresholds: ~20 dB
